{"source": "paper PMC10650850", "about": "“Discovery, Structure–Activity Relationship and In Vitro Anticancer Activity of Small-Molecule Inhibitors of the Protein–Protein Interactions between AF9/ENL and AF4 or DOT1L” (Cancers, 2023)", "note": "Structures can show the parent of a compound that is named as a salt."}
{"target": "T1, AF9-DOT1L interaction (Homo sapiens, UniProt P42568)", "T1 construct": "human AF9 AHD domain (475–568); made in house; host or cells: E. coli BL21(DE3)", "T1 sequence (P42568 475-568)": "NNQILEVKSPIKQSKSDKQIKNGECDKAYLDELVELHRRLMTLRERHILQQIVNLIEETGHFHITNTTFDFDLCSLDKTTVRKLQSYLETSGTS", "assay": "AlphaLisa assay, AF9-DOT1L interaction", "assay_type": "binding", "conditions": "not given", "description": "(§1) An AlphaLisa assay we previously developed was used for compound screening for inhibitors of the AF9-DOT1L interaction. The PPI takes the DOT1L-peptide coated donor beads and AF9 AHD coated acceptor beads together. The donor beads are illuminated with a laser beam (680 nm) to generate singlet oxygen radicals, which activate the adjacent acceptor beads to produce luminescence at 615 nm. When a compound can disrupt such PPI and separate the donor and acceptor beads, the highly unstable radicals are rapidly quenched by water without generating luminescence.\n(§2) The cDNA for the human AF9 AHD domain (475–568) and ENL AHD domain (489–559) was synthesized (by Genscript, Piscataway, NJ, USA) and inserted into the pMAL c5X expression plasmid. The DOT1L peptide (Biotin-AHX-[…]) and AF4 peptide (Biotin-AHX-[…]) for the Alpha assay were purchased from Genscript.\n(§3) Alpha assays were developed in our previous publication, using a Perkin-Elmer AlphaLisa anti-MBP kit, which contains streptavidin donor beads and anti-MBP acceptor beads. Briefly, the assay was performed using a MBP-protein (5 nM), a biotinylated peptide (40 nM), and increasing concentrations of a compound in 25 µL buffer (PBS with 0.5% BSA, pH 7.5) in 384-well plates according to the manufacturer’s protocol and measured with a Tecan SPARK microplate reader. Data were imported into Prism (version 5.0), and IC50 values from 3 independent experiments with standard deviation were obtained by using a standard dose-response curve fitting."}
{"compound": "Cl.O=C(NCC1CCNCC1)c1cc2ccc(-c3ccc(C(=O)N4CCC(N5CCCCC5)CC4)cc3)cc2s1", "note": "[Compound 33, 6-(4-(4-(Piperidin-1-yl)piperidin-1-carbonyl)phenyl)-N-(piperidin-4-ylmethyl)-benzo[b]thiophene-2-carboxamide hydrochloride]", "Inhibitory activity against the AF9-DOT1L interaction (in words)": "inactive"}
{"compound": "Cl.O=C(NCC1CCNCC1)c1cc2ccc(-c3ccc(C(=O)N4CCC(N5CCCC5)CC4)cc3)cc2s1", "note": "[Compound 34, 6-(4-(4-(Pyrrolidin-1-yl)piperidin-1-carbonyl)phenyl)-N-(piperidin-4-ylmethyl)-benzo[b]thiophene-2-carboxamide hydrochloride]", "Inhibitory activity against the AF9-DOT1L interaction (in words)": "inactive"}
{"target": "T1, AF9-DOT1L interaction", "assay": "AlphaLisa assay, AF9-DOT1L interaction", "assay_type": "binding", "conditions": "MBP-protein 5 nM, biotinylated peptide 40 nM, 3 independent experiments with standard deviation, read-out: IC50 (μM) against the AF9-DOT1L interaction", "description": "as §1, §2, §3", "units": {"IC50": "µM"}}
{"compound": "O=C(NCC1CCNCC1)c1cc2ccc(-c3ccc(N4CCCCC4)cc3)cc2[nH]1", "note": "[Compound 1]", "IC50": "3.3 ± 0.2"}
{"target": "T1, AF9-DOT1L interaction", "assay": "AlphaLisa assay, AF9-DOT1L interaction", "assay_type": "binding", "conditions": "compound at 5 μM", "description": "as §1, §2, §3", "units": {"% Inhibition at 5 μM against the AF9-DOT1L interaction": "%"}}
{"compound": "5-(4-(Tert-butyl)phenyl)-N-(piperidin-4-ylmethyl)-benzo[b]thiophene-2-carboxamide hydrochloride [Compound 55]", "% Inhibition at 5 μM against the AF9-DOT1L interaction": 45}
{"target": "T1, AF9-DOT1L interaction", "assay": "AlphaLisa assay, AF9-DOT1L interaction", "assay_type": "binding", "conditions": "compound at 5 μM, read-out: % Inhibition at 5 μM against the AF9-DOT1L interaction", "description": "as §1, §2, §3", "units": {"inhibition at 5 µM": "%"}}
{"compound": "COc1ccc(Oc2ccc3cc(C(=O)NCC4CCNCC4)oc3c2)cc1", "note": "[Compound 76, 6-(4-Methoxylphenoxyl)-N-(piperidin-4-ylmethyl)-benzofuran-2-carboxamide hydrochloride]", "inhibition at 5 µM": 24}
{"compound": "O=C(NCC1CCNCC1)c1cc2ccc(-c3ccc(C4CCCCC4)cc3)cc2o1", "note": "[Compound 61, 6-(4-Cyclohexylphenyl)-N-(piperidin-4-ylmethyl)-benzofuran-2-carboxamide hydrochloride]", "inhibition at 5 µM": 18}
{"compound": "O=C(NCC1CCNCC1)c1cc2ccc(-c3ccc(CN4CCCCC4)cc3)cc2s1", "note": "[Compound 28, 6-(4-(Piperidin-1-ylmethyl)phenyl)-N-(piperidin-4-ylmethyl)-benzo[b]thiophene-2-carboxamide hydrochloride]", "inhibition at 5 µM": 45}
{"compound": "O=C(NCC1CCNCC1)c1cc2ccc(N3CCC(N4CCCCC4)CC3)cc2s1", "note": "[Compound 31]", "inhibition at 5 µM": 14}
{"compound": "O=C(NCC1CCNCC1)c1cc2cc(-c3ccc(C(=O)N4CCCC4)cc3)ccc2s1", "note": "[Compound 52]", "inhibition at 5 µM": 0}
{"compound": "O=C(NCC1CCNCC1)c1cc2ccc(-c3ccc(Cl)cc3)cc2s1", "note": "[Compound 48, 6-(4-Chlorophenyl)-N-(piperidin-4-ylmethyl)-benzo[b]thiophene-2-carboxamide hydrochloride]", "inhibition at 5 µM": "~50"}
{"compound": "O=C(NCC1CCNCC1)c1c[nH]c2cc(-c3ccc(N4CCOCC4)cc3)ccc12", "note": "[Compound 13, 6-(4-(Morpholinophenyl)-N-(piperidin-4-ylmethyl)-1H-indole-3-carboxamide hydrochloride]", "inhibition at 5 µM": 29}
{"compound": "Cl.O=C(NCC1CCNCC1)c1cc2ccc(-c3ccc(C(=O)N4CCC(N5CCCCC5)CC4)cc3)cc2s1", "note": "[Compound 33, 6-(4-(4-(Piperidin-1-yl)piperidin-1-carbonyl)phenyl)-N-(piperidin-4-ylmethyl)-benzo[b]thiophene-2-carboxamide hydrochloride]", "inhibition at 5 µM": 0}
{"compound": "Cc1cc(C#N)ccc1-c1ccc2[nH]c(C(=O)NCC3CCNCC3)cc2c1", "note": "[Compound 21]", "inhibition at 5 µM": 0}
{"compound": "O=C(NCC1CCNCC1)c1c[nH]c2ccc(-c3ccc(N4CCCCC4)cc3)cc12", "note": "[Compound 23, 5-(4-(Piperidin-1-yl)phenyl)-N-(piperidin-4-ylmethyl)-1H-indole-3-carboxamide hydrochloride]", "inhibition at 5 µM": 43}
{"compound": "N#Cc1ccc(-c2ccc3cc(C(=O)NCC4CCNCC4)oc3c2)cc1", "note": "[Compound 73, 6-(4-Cyanophenyl)-N-(piperidin-4-ylmethyl)-benzofuran-2-carboxamide hydrochloride]", "inhibition at 5 µM": 15}
{"compound": "O=C(NCC1CCNCC1)c1cc2cc(Nc3ccc(OC(F)(F)F)cc3)ccc2s1", "note": "[Compound 56, 5-((4-(Trifluoromethoxyl)phenyl)amino)-N-(piperidin-4-ylmethyl)-benzo[b]thiophene-2-carboxamide hydrochloride]", "inhibition at 5 µM": 24}
{"compound": "O=C(NCC1CCNCC1)c1cc2ccc(-c3ccc(CO)cc3)cc2s1", "note": "[Compound 39, 6-(4-(Hydroxylmethyl)phenyl)-N-(piperidin-4-ylmethyl)-benzo[b]thiophene-2-carboxamide hydrochloride]", "inhibition at 5 µM": 0}
{"compound": "O=C(NCC1CCNCC1)c1cc2ccc(-c3ccc(O)cc3)cc2s1", "note": "[Compound 46, 6-(4-Hydroxylphenyl)-N-(piperidin-4-ylmethyl)-benzo[b]thiophene-2-carboxamide hydrochloride]", "inhibition at 5 µM": 0}
{"compound": "CN1CCN(c2ccc(-c3ccc4cc(C(=O)NCC5CCNCC5)oc4c3)cc2)CC1", "note": "[Compound 60, 6-(4-(4-Methylpiperazin-1-yl)phenyl)-N-(piperidin-4-ylmethyl)-benzofuran-2-carboxamide hydrochloride]", "inhibition at 5 µM": 32}
{"compound": "O=C(NCC1CCNCC1)c1cc2cc(-c3ccc(C(=O)N4CCCCC4)cc3)ccc2s1", "note": "[Compound 51, 5-(4-(Piperidine-1-carbonyl)phenyl)-N-(piperidin-4-ylmethyl)-benzo[b]thiophene-2-carboxamide hydrochloride]", "inhibition at 5 µM": 31}
{"compound": "N#Cc1ccc(-c2ccc3cc(C(=O)NCC4CCNCC4)sc3c2)cc1F", "note": "[Compound 42, 6-(4-Cyano-3-fluorophenyl)-N-(piperidin-4-ylmethyl)-benzo[b]thiophene-2-carboxamide hydrochloride]", "inhibition at 5 µM": 26}
{"compound": "O=C(NCC1CCNCC1)c1cc2ccc(-c3ccc(C4CCCCC4)cc3)cc2[nH]1", "note": "[Compound 4, 6-(4-Cyclohexylphenyl)-N-(piperidin-4-ylmethyl)-1H-indole-2-carboxamide hydrochloride]", "inhibition at 5 µM": 31}
{"compound": "O=C(NCC1CCNCC1)c1cc2ccc(-c3ccc(F)cc3)cc2s1", "note": "[Compound 49, 6-(4-Fluorophenyl)-N-(piperidin-4-ylmethyl)-benzo[b]thiophene-2-carboxamide hydrochloride]", "inhibition at 5 µM": 21}
{"compound": "N#Cc1ccc(-c2ccc3[nH]c(C(=O)NCC4CCNCC4)cc3c2)cc1F", "note": "[Compound 20, 5-(3-Fluoro-4-cyanophenyl)-N-(piperidin-4-ylmethyl)-1H-indole-2-carboxamide hydrochloride]", "inhibition at 5 µM": 8}
{"compound": "Cl.O=C(NCC1CCNCC1)c1cc2ccc(-c3ccc(C(=O)N4CCC(N5CCCC5)CC4)cc3)cc2s1", "note": "[Compound 34, 6-(4-(4-(Pyrrolidin-1-yl)piperidin-1-carbonyl)phenyl)-N-(piperidin-4-ylmethyl)-benzo[b]thiophene-2-carboxamide hydrochloride]", "inhibition at 5 µM": 5}
{"compound": "O=C(NCC1CCNCC1)c1cc2ccc(N3CCC(N4CCCC4)CC3)cc2s1", "note": "[Compound 32]", "inhibition at 5 µM": 20}
{"compound": "O=C(NCC1CCNCC1)c1cc2ccc(-c3ccc(-c4ccccc4)cc3)cc2o1", "note": "[Compound 67, 6-((1,1′-Biphenyl)-4-yl)-N-(piperidin-4-ylmethyl)-benzofuran-2-carboxamide hydrochloride]", "inhibition at 5 µM": 0}
{"compound": "CS(=O)(=O)c1ccc(-c2ccc3cc(C(=O)NCC4CCNCC4)sc3c2)cc1", "note": "[Compound 43, 6-(4-(Methylsulfonyl)phenyl)-N-(piperidin-4-ylmethyl)-benzo[b]thiophene-2-carboxamide hydrochloride]", "inhibition at 5 µM": 49}
{"compound": "O=C(NCC1CCNCC1)c1cc2ccc(-c3ccc(OC(F)(F)F)cc3)cc2s1", "note": "[Compound 44, 6-(4-Trifluoromethoxylphenyl)-N-(piperidin-4-ylmethyl)-benzo[b]thiophene-2-carboxamide hydrochloride]", "inhibition at 5 µM": 14}
{"compound": "CC(=O)c1ccc(-c2ccc3cc(C(=O)NCC4CCNCC4)[nH]c3c2)cc1", "note": "[Compound 8, 6-(4-Acetophenyl)-N-(piperidin-4-ylmethyl)-1H-indole-2-carboxamide hydrochloride]", "inhibition at 5 µM": 37}
